Reference: ChEMBL document CHEMBL1142428, “Noreupenifeldin, a tropolone from an unidentified ascomycete” (J Nat Prod, 2008)
≈ marks a conversion by molar mass, not a printed value. Calls of active or inactive are those of the source. The rule behind the calls is not given here.

What was measured:
[1] = system: Haemonchus contortus; assay: Anthelmintic activity against Haemonchus contortus assessed as reduction in L3 larval motility; format: functional
[2] = biological target: Stromelysin-1 (Homo sapiens, UniProt P08254); assay: Inhibition of stromelysin mediated beta-casein cleavage
Chain of Stromelysin-1 (P08254 whole entry): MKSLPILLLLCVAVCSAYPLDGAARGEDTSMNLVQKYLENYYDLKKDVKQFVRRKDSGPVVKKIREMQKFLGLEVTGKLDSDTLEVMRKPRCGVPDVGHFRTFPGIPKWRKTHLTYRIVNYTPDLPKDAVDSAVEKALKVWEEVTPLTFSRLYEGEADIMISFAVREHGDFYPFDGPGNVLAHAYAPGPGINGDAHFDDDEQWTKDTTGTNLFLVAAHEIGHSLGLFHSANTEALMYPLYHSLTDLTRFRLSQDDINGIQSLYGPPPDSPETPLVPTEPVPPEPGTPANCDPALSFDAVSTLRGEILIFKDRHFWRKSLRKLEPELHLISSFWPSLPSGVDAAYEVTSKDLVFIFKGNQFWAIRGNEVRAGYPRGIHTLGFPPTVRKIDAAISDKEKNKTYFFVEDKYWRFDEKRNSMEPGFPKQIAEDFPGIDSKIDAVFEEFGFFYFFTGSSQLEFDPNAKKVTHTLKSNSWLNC

Row | Compound | Activity [1] | IC50 [2] | EC90 [1]
1 | Cc1cc(=O)c(O)cc2c1C[C@@H]1CC(C)(C)/C=C/C[C@@]3(C)Oc4cc(O)cc(C)c4C[C@@H]3C[C@@H](O)[C@]1(C)O2 | inactive |  | 
2 | Cc1cc(=O)c(O)cc2c1C[C@H]1CC(C)(C)/C=C/C[C@@]3(C)Oc4cc(O)c(=O)cc(C)c4C[C@@H]3C[C@H](O)[C@]1(C)O2 [PYCNIDIONE] |  | 31 µM | 83 µg/mL (≈ 151 µM)
3 | IVERMECTIN |  |  | 0.18 µg/mL
4 | Cc1cc(=O)c(O)cc2c1C[C@@H]1CC(C)(C)/C=C/C[C@@]3(C)Oc4cc(O)c(=O)cc(C)c4C[C@@H]3C[C@@H](O)[C@]1(C)O2 [EUPENIFELDIN] |  |  | 50 µg/mL (≈ 91.1 µM)
